Reference: patent publication US8153589B2, “JNK3 as a target for the treatment of angiogenesis-related diseases” (The University of North Carolina at Chapel Hill, priority 2009, dated 2012)

What was measured:
BAECs = test: Scratch wound healing assay; assay type: cell-based, bovine; conditions: 50 ng/ml SDF-1alpha, no inhibitor
Protocol: For detection of cell migration, a wound healing assay was performed as previously described (40). BAECs were grown on 35 mm wells, the monolayer was scratched with a sterile disposable rubber policeman and the edge labeled with a traced line. After injury, the cells were gently washed with normal media without serum. EC migration from the edge of the injured monolayer was quantified by measuring the area between the wound edges before and the recovered area after injury using light microscopy (Eclipse TS100, 4× objective, Nikon) and the computer program ImageJ.
To determine whether eNOS activation is required for SDF-1α-mediated endothelial cell migration, we performed scratch-wound healing and Boyden chamber migration assays in the presence of the NOS-specific inhibitor L-NMMA (19). Confluent BAECs were pretreated for one hour with 1 mM or 5 mM L-NMMA or vehicle prior to each assay. […] Similarly, cell migration in Boyden chambers was induced by SDF-1α (from 8±3 to 86±5 cells per field), but this increase in migration was inhibited by the pre-incubation of BAECs with L-NMMA (FIG. 1D). The involvement of eNOS in SDF-1α-induced endothelial cell migration was confirmed by treatment of cells with siRNAs specific for eNOS. […]

MKP7 = test: Biotin switch assay, MKP7 nitrosylation in BAECs transfected with Flag-MKP7; assay type: cell-based; conditions: 50 ng/ml SDF-1alpha for 5 minutes
Protocol: Experiments were performed following the methods previously described by Dr. Stamler's laboratory (39). Cell lysates containing Flag or Myc-tagged MKP7 protein were treated with the indicated concentrations of GSNO followed by the addition of 2 volumes of HEN buffer and freshly prepared S-methyl methanethiosulfonate (10% v/v in N,N-dimethylformamide) and SDS (25% v/v) to final concentrations of 0.1 and 2.5%, respectively. Following frequent vortexing at 50° C. for 1 hour, proteins were precipitated with 3 volumes of acetone at −20° C. for 30 min. The proteins were recovered by centrifugation at 5,000×g for 5 min, followed by gentle rinsing of the pellet with 3×1 ml acetone. The pellets were then resuspended in 240 μl of HEN buffer containing 1% SDS. The resuspended protein was precipitated, rinsed and resuspended once more. For labeling, the blocked samples were mixed with 0.1 volume of biotin-HPDP (2.5 mg/ml in Me2SO) and 0.1 volume of HEN (control) or freshly prepared sodium Ascorbic acid in HEN buffer. […] The eluted mixture was then analyzed by SDS-PAGE, followed by immunoblotting with anti-Flag-HRP (1:5000) or antibodies.
As a first step, we investigated whether SDF-1α treatment of BAECs would result in S-nitrosylation of MKP7. […] Next we used JNK3 phosphorylation as a readout for determining whether or not SDF-1α activation of JNK3 could be inhibited by MKP7. […]

SDF-1α
BAEC migration towards the wounded area (BAECs): 56.0±12.0% | MKP7 nitrosylation in BAECs (MKP7): increased
